Test results taken from patent publication US11117894B2, “Pyridopyrazine compounds and uses thereof” (CITY OF HOPE, priority 2017, dated 2021).
pIC50: −log10 of the molar value.

Tests used:
DU145 prostate cancer = assay: MTS cell viability assay, DU145 prostate cancer cell line; assay type: cell-based; settings: 48 h; for pIC50: Homo sapiens, DU-145, DU145 prostate cancer, MTS; for Viability % CTL DU145 prostate (10 μM ): Table 4; for Viability % CTL DU145 prostate: Table 1, screened at 10 μM; for Viability (% CTL) at 10 μM DU145 prostate: Table 2
Description: (§1) MTS assays were performed for cell viability. To determine if novel pyridopyrazine derivatives have antitumor activities, compounds were screened at 10 μM final concentration with A2058 melanoma and DU145 prostate cancer cell lines. Compounds #16 and #17 were selected to determine IC50 values against lung cancer cell lines, including A549, DMS273, H69, H513, H2461, DMS114, H358 and H2596. In this assay, cells (5000/well) were seeded in 96-well plates, incubated overnight at 37° C. in 5% CO2, and exposed to 10 μM of compounds or in a dose-dependent manner for 48 h. After 48 h treatment with compounds, MTS dye (20 μL/well) was added to 96-well plates. Viable cell numbers were determined by tetrazolium conversion to its formazan dye. Absorbance was measured at 490 nm using an automated ELISA plate reader. Dimethyl sulfoxide (DMSO) was used as the vehicle control. Each experiment was conducted in triplicate. IC50 values were determined using CalcuSyn software (Biosoft).

A2058 melanoma = assay: MTS cell viability assay, A2058 melanoma cell line; assay type: cell-based; settings: 48 h; for pIC50: Homo sapiens, MTS; for Viability % CTL A2058 melanoma (10 μM): Table 4, 10 μM; for Viability % CTL A2058 melanoma: Table 1, screened at 10 μM; for Viability (% CTL) at 10 μM A2058 melanoma: Table 2, 10 μM
Description: as §1

Structure (SMILES): CCOC(=O)c1ccc(Nc2cnc3cc(NC(=O)Nc4ccc(F)c(Cl)c4)c(C)nc3n2)cc1 [Compound 28, Ethyl 4-((7-(3-(3-chloro-4-fluorophenyl)ureido)-6-methylpyrido[2,3-b]pyrazin-3-yl)amino)benzoate]
- pIC50 (DU145 prostate cancer): 5.00
- Viability % CTL DU145 prostate (10 μM ) (DU145 prostate cancer): 40 % CTL
- pIC50 (A2058 melanoma): 5.15
- Viability % CTL A2058 melanoma (10 μM) (A2058 melanoma): 35 % CTL

Structure (SMILES): Cc1nc2nc(Oc3ccccc3)cnc2cc1NC(=O)Nc1ccccc1 [Compound 57C]
- Viability % CTL DU145 prostate (DU145 prostate cancer): 126 % CTL
- Viability % CTL A2058 melanoma (A2058 melanoma): 94 % CTL

Structure (SMILES): Cc1nc2nc(Nc3ccccc3)cnc2cc1NC(=O)c1ccccc1 [Compound 8, N-(6-Methyl-3-(phenylamino)pyrido[2,3-b]pyrazin-7-yl)benzamide]
- Viability (% CTL) at 10 μM DU145 prostate (DU145 prostate cancer): 90 % CTL
- Viability (% CTL) at 10 μM A2058 melanoma (A2058 melanoma): 81 % CTL

Structure (SMILES): Cc1nc2nc(Nc3ccccc3)cnc2cc1NC(=O)Nc1ccc(Cl)cc1Cl [Compound 19, 1-(2,4-Dichlorophenyl)-3-(6-methyl-3-(phenylamino)pyrido[2,3-b]pyrazin-7-yl)urea]
- Viability % CTL DU145 prostate (10 μM ) (DU145 prostate cancer): 50 % CTL
- Viability % CTL A2058 melanoma (10 μM) (A2058 melanoma): 60 % CTL

Structure (SMILES): Cc1nc2nc(Nc3ccccc3)cnc2cc1NC(=O)c1cccc(C(F)(F)F)c1 [Compound 12, N-(6-Methyl-3-(phenylamino)pyrido[2,3-b]pyrazin-7-yl)-3-(trifluoromethyl)benzamide]
- Viability % CTL DU145 prostate (DU145 prostate cancer): 93 % CTL
- Viability % CTL A2058 melanoma (A2058 melanoma): 69 % CTL

Structure (SMILES): Cc1nc2nc(Nc3ccccc3)cnc2cc1NC(=O)Nc1ccccc1 [Compound 15, 1-(6-Methyl-3-(phenylamino)pyrido[2,3-b]pyrazin-7-yl)-3-phenylurea]
- Viability (% CTL) at 10 μM DU145 prostate (DU145 prostate cancer): 4 % CTL
- Viability (% CTL) at 10 μM A2058 melanoma (A2058 melanoma): 5 % CTL

Structure (SMILES): COc1cc(Nc2cnc3cc(NC(=O)Nc4cccc(C(F)(F)F)c4)c(C)nc3n2)cc(OC)c1OC [Compound 34, 1-(6-Methyl-3-((3,4,5-trimethoxyphenyl)amino)pyrido[2,3-b]pyrazin-7-yl)-3-(3-(trifluoromethyl)phenyl)urea]
- Viability % CTL DU145 prostate (10 μM ) (DU145 prostate cancer): 81 % CTL
- Viability % CTL A2058 melanoma (10 μM) (A2058 melanoma): 116 % CTL

Structure (SMILES): Cc1nc2nc(Sc3ccccc3)cnc2cc1NC(=O)Nc1ccc(F)c([N+](=O)[O-])c1 [Compound 20B]
- Viability % CTL DU145 prostate (DU145 prostate cancer): 89 % CTL
- Viability % CTL A2058 melanoma (A2058 melanoma): 84 % CTL

Structure (SMILES): Cc1nc2nccnc2cc1NC(=O)Nc1ccc(F)c(Cl)c1 [Compound 16A]
- Viability % CTL DU145 prostate (DU145 prostate cancer): 99 % CTL
- Viability % CTL A2058 melanoma (A2058 melanoma): 96 % CTL

Structure (SMILES): CCOC(=O)c1ccc(Nc2cnc3cc(NC(=O)Nc4cccc(C(F)(F)F)c4)c(C)nc3n2)cc1 [Compound 29, Ethyl 4-((6-methyl-7-(3-(3-(trifluoromethyl)phenyl)ureido)pyrido[2,3-b]pyrazin-3-yl)amino)benzoate]
- pIC50 (DU145 prostate cancer): 4.89
- Viability % CTL DU145 prostate (10 μM ) (DU145 prostate cancer): 48 % CTL
- pIC50 (A2058 melanoma): 5.21
- Viability % CTL A2058 melanoma (10 μM) (A2058 melanoma): 37 % CTL

Structure (SMILES): CC(=O)Nc1cccc(Nc2cnc3cc(NC(=O)Nc4ccc(F)c(Cl)c4)c(C)nc3n2)c1 [Compound 30, N-(3-((7-(3-(3-Chloro-4-fluorophenyl)ureido)-6-methylpyrido[2,3-b]pyrazin-3-yl)amino)phenyl)acetamide]
- Viability % CTL DU145 prostate (10 μM ) (DU145 prostate cancer): 64 % CTL
- Viability % CTL A2058 melanoma (10 μM) (A2058 melanoma): 118 % CTL

Structure (SMILES): Cc1nc2nc(Nc3ccccc3)cnc2cc1NC(=O)CN(C)C [Compound 24E]
- Viability (% CTL) at 10 μM DU145 prostate (DU145 prostate cancer): 102 % CTL
- Viability (% CTL) at 10 μM A2058 melanoma (A2058 melanoma): 84 % CTL

Structure (SMILES): Cc1nc2nccnc2cc1NC(=O)CN1CCN(C)CC1 [Compound 13A]
- Viability % CTL DU145 prostate (DU145 prostate cancer): 86 % CTL
- Viability % CTL A2058 melanoma (A2058 melanoma): 94 % CTL

Structure (SMILES): Cc1nc2nccnc2cc1NC(=O)c1cccc(C(F)(F)F)c1 [Compound 09A]
- Viability % CTL DU145 prostate (DU145 prostate cancer): 103 % CTL
- Viability % CTL A2058 melanoma (A2058 melanoma): 74 % CTL

Structure (SMILES): COc1cc(C(=O)Nc2cc3nccnc3nc2C)cc(OC)c1OC [Compound 07A]
- Viability % CTL DU145 prostate (DU145 prostate cancer): 122 % CTL
- Viability % CTL A2058 melanoma (A2058 melanoma): 82 % CTL

Structure (SMILES): Cc1nc2nc(Nc3ccccc3)cnc2cc1NC(=O)c1ccc(NC(=O)Nc2ccccc2)cc1 [Compound 14, N-(6-Methyl-3-(phenylamino)pyrido[2,3-b]pyrazin-7-yl)-4-(3-phenylureido)benzamide]
- Viability (% CTL) at 10 μM DU145 prostate (DU145 prostate cancer): 80 % CTL
- Viability (% CTL) at 10 μM A2058 melanoma (A2058 melanoma): 75 % CTL

Structure (SMILES): Cc1nc2nccnc2cc1NC(=O)c1ccc(N)cc1 [Compound 12A]
- Viability % CTL DU145 prostate (DU145 prostate cancer): 99 % CTL
- Viability % CTL A2058 melanoma (A2058 melanoma): 84 % CTL
